Reference: patent publication US9944699B2, “In vitro method for identifying compounds of the Nav 1.9 sodium channel intended for the treatment of an inflammatory skin disease” (GALDERMA RESEARCH & DEVELOPMENT, priority 2013, dated 2018)
“Also recorded” adds a separate entry of the source.

How the values were obtained:
Nav 1.5 = Nav 1.5 (Homo sapiens, UniProt Q14524); conditions: cited from earlier work
Nav 1.8 = Nav 1.8 (Homo sapiens, UniProt Q9Y5Y9); conditions: cited from earlier work
Nav 1.9 = Nav 1.9 (Homo sapiens, UniProt Q9UI33); conditions: cited from earlier work
[1] = system: primary cultures of neurones from spinal ganglia of KO mice for Nav 1.9; test: Release of CGRP by primary neurone cultures after treatment with capsaicin (ELISA), Nav 1.9 KO mice; format: cell-based, mouse; conditions: capsaicin 300 nM, 15 min; neurone cultures from Nav 1.9 KO mice; versus without treatment

Nav 1.9, sequence (Q9UI33 whole entry, looked up): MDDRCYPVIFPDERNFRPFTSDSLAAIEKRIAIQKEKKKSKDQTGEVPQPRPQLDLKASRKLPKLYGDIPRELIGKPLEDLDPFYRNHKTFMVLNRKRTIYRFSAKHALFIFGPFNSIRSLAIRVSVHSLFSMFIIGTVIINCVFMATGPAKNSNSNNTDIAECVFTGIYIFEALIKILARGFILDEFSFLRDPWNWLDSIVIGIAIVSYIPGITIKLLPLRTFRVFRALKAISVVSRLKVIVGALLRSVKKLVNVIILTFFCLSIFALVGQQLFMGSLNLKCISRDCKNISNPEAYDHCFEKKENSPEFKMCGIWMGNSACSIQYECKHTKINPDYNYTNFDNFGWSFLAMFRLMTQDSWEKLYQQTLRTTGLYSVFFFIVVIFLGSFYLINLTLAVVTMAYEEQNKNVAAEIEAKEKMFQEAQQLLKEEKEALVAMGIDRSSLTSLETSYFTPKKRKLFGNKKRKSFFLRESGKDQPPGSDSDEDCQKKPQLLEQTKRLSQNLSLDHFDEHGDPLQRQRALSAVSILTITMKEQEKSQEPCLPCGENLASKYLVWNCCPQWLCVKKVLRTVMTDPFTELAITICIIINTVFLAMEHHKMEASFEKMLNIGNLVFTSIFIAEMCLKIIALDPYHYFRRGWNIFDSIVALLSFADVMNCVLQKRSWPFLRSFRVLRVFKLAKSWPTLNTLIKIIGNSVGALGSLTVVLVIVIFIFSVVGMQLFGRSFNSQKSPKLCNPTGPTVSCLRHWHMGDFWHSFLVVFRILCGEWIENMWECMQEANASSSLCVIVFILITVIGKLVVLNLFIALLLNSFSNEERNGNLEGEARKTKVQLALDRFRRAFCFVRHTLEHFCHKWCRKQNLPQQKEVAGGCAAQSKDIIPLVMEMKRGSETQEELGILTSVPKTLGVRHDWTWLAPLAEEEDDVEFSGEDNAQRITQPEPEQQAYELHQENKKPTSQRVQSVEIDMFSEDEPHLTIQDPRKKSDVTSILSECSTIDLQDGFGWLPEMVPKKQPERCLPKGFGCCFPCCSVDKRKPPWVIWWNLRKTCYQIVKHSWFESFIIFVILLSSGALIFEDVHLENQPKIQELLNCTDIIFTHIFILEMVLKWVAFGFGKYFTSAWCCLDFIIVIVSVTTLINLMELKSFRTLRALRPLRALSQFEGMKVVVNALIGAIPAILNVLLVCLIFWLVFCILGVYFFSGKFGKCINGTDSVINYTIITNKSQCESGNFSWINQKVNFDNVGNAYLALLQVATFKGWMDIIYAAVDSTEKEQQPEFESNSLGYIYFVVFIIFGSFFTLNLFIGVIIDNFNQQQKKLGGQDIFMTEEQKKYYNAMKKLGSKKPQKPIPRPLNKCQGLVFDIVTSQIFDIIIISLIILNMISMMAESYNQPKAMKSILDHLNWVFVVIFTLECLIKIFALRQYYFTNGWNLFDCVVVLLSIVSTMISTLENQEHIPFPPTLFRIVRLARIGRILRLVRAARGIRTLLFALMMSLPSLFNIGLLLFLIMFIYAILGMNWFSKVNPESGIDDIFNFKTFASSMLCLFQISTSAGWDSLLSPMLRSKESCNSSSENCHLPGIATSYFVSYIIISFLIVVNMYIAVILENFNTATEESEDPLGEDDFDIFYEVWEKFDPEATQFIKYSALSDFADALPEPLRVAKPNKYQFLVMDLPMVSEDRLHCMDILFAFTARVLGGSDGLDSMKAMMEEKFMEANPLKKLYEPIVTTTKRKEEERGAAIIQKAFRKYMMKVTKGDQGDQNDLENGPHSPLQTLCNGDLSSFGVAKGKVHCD
Nav 1.8, sequence (Q9Y5Y9 whole entry, looked up): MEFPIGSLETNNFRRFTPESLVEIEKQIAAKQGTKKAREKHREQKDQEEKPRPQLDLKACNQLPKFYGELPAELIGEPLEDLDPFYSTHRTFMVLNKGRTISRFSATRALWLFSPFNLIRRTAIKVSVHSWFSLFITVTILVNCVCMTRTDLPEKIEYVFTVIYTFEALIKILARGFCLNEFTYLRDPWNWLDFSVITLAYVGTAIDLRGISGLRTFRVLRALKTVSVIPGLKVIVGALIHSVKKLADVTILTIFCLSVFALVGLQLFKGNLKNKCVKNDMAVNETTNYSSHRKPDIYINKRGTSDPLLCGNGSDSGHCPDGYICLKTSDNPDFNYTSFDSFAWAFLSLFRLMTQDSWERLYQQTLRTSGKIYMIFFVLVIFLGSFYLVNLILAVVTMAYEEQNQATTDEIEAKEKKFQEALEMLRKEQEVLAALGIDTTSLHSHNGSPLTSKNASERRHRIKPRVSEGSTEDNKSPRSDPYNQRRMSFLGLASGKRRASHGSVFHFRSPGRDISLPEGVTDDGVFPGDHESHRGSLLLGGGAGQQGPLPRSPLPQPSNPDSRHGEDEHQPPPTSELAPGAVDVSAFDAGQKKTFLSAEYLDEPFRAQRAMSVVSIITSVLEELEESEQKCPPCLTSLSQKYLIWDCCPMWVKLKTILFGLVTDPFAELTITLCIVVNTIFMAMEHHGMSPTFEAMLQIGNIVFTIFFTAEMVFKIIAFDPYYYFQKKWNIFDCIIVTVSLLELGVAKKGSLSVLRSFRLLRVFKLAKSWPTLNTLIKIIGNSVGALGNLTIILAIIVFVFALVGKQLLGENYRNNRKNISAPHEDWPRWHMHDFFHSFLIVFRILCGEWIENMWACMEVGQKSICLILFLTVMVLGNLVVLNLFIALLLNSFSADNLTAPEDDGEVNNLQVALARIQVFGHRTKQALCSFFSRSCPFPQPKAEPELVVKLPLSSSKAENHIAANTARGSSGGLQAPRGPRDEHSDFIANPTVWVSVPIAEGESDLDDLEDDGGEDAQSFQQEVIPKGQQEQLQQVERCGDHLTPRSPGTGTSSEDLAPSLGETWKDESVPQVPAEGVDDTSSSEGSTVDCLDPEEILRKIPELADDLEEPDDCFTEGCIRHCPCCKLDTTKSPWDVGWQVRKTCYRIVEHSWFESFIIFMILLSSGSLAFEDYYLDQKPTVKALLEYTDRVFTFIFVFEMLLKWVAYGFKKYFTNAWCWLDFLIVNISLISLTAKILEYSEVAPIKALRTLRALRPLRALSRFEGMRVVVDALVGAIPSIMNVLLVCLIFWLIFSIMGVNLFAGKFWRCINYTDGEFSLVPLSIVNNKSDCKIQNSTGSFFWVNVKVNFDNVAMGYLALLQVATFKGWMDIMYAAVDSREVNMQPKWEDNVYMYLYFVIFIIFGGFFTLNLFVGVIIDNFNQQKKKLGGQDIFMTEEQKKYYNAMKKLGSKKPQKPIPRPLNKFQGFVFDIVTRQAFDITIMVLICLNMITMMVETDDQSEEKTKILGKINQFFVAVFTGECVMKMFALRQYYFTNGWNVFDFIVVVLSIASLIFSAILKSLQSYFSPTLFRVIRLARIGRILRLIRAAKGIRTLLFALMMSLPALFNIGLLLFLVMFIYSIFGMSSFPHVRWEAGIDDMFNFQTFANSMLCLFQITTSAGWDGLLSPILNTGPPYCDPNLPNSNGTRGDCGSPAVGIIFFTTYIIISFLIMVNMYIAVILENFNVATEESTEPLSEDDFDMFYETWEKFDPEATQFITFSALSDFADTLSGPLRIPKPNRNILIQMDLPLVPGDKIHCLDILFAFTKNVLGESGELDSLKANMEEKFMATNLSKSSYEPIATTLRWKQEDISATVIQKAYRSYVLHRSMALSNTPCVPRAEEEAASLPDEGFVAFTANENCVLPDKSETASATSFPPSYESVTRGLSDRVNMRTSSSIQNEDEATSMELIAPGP

| Compound | sensitivity to tetrodotoxin (TTX) (Nav 1.5) | sensitivity to tetrodotoxin (TTX) (Nav 1.8) | sensitivity to tetrodotoxin (TTX) (Nav 1.9) | EC50 (Nav 1.9; read-out: EC50 of the TTX for Nav 1.9) | variation in the amount of CGRP released in the supernatant [1] |
| --- | --- | --- | --- | --- | --- |
| NC1=N[C@H](O)[C@H]2[C@H]3O[C@]4(O)O[C@@H]([C@@H](O)[C@@]2(N1)[C@@H]4O)[C@]3(O)CO [TTX, tetrodotoxin] | resistant | resistant | resistant | ~200 µM |  |
| COc1cc(CNC(=O)CCCC/C=C/C(C)C)ccc1O [capsaicin] |  |  |  |  | no variation; also recorded: no increase |
